According to US10023565B2, “N,N′ substituted piperidinamine compounds, and preparation method and usage thereof” (Institute of Pharmacology and Toxicology Academy of …, priority 2013, dated 2018):

Test system: mice
Assay: Acute toxicity experiment with single intragastric administration to mice
Type: in vivo
Settings: for Quantity of animals (survival/death): 14 d observation
Protocol: Acute toxicity experiment with single intragastric administration to mice of the compound of Example 36 according to the following method
(2) Preparation of test sample: a suitable amount of sample was weighed, and suspended in 0.5% CMC-Na, followed by vortex vibration till uniform. The resulting suspension was fully vibrated before administration.
According to the results of pre-experiment, experiment was conducted using Fixed-dose procedure. 70 mice were randomly divided into 7 groups, 10 mice each group, male and female in half. The administration doses were respectively: 1555, 1296, 1080, 900, 750, 625 and 520 mg/kg, and observation of the animals after administration continued for 14 days.
Observation was conducted once 5 min, 10 min, 20 min, 30 min, 1 h, 2 h, 4 h, 6 h, 8 h, 12 h, 18 h, 1 d, 2 d, 3 d, 7 d and 14 d respectively after administration, to record the animal death and toxic response.
LD50 was calculated by statistical analysis using SAS software.
2. Calculation of LD50 Using Bliss Method

CSc1nccc(N2CCC(N(C)Cc3ccc(C#N)cc3)CC2)n1 [Example 36, N-methyl-N-(4-cyanobenzyl)-N-[1-(2-methylthiopyrimidin-4-yl)piperidin-4-yl]amine]
Quantity of animals (survival/death) (520 mg/kg, Female): 5/0
Quantity of animals (survival/death) (520 mg/kg, Male): 5/0
Quantity of animals (survival/death) (625 mg/kg, Female): 5/0
Quantity of animals (survival/death) (625 mg/kg, Male): 4/1
Quantity of animals (survival/death) (750 mg/kg, Female): 2/3
Quantity of animals (survival/death) (750 mg/kg, Male): 4/1
Quantity of animals (survival/death) (900 mg/kg, Female): 2/3
Quantity of animals (survival/death) (900 mg/kg, Male): 3/2
Quantity of animals (survival/death) (1080 mg/kg, Female): 2/3
Quantity of animals (survival/death) (1080 mg/kg, Male): 0/5
Quantity of animals (survival/death) (1296 mg/kg, Female): 0/5
Quantity of animals (survival/death) (1296 mg/kg, Male): 1/4
first animal death, time after administration (1555 mg/kg dose group): 5 min
Quantity of animals (survival/death) (1555 mg/kg, Female): 0/5
Quantity of animals (survival/death) (1555 mg/kg, Male): 0/5
gross anatomical examination (animals dead during or killed at end of the experiment): No obvious abnormality was found
survival of the dose group (mouse, in vivo): all survived
clinical manifestations of animal poisoning (single intragastric administration, 520-1555 mg/kg): muscle tremors, convulsions, eye closed, curled up into a ball, erected hair, reduced activity, loss of appetite
LD50 and 95% confidence limit (single intragastric administration, mice, Bliss method, SAS): 869.0 (776.5-969.4) mg/kg
